# From publication PMC7464559, “Synthesis, Optimization, Antifungal Activity, Selectivity, and CYP51 Binding of New 2-Aryl-3-azolyl-1-indolyl-propan-2-ols” (Pharmaceuticals, 2020)
# How the values were obtained:
# C. albicans CA98001 = test: Anti-Candida in vitro assay (Alamar Blue), C. albicans CA98001; assay type: cell-based; conditions: for MIC: Candida albicans, CA98001, 24 h
# Description: (§1) Test fungal strains were obtained from the American Type Culture Collection (ATCC) or were clinical isolates from the Laboratory of Parasitology and Medical Mycology, Centre Hospitalier Universitaire (CHU) of Nantes. The strains were maintained on Sabouraud agar slants and were subcultured 24 h before used. The activity of the target compounds 8a–g and 11a–m was determined by the method previously described. Briefly, molecules were diluted in RPMI 1640 medium supplemented with 0.165 M morpholinopropanesulphonic acid (Sigma-Aldrich, Saint-Quentin Fallavier, France), 2% glucose, and antibiotics. Candida suspensions were prepared in RPMI 1640 medium (Sigma-Aldrich, Saint-Quentin Fallavier, France) adjusted to give a final concentration of 10^3 cells/mL, and a 96-well microplate (Nunc, D. Dutscher, Brumath, France) was seeded with 100 µL. Each concentration of molecules (100 µL) to be tested was added (in triplicate) and plates were incubated at 37 °C for 24 h. The cellular viability was evaluated on the Fluorolite 1000 (Dynatech, France) with an excitation at 550 nm and an emission at 590 nm after a 4 h incubation with 10 µL of Alamar Blue®. […] MIC was expressed as the mean of the triplicate values. KTC and FLC were used as standards.
# [1] = test system: ATCC2091 Candida albicans strain; test: Anti-Candida in vitro assay, ATCC2091; assay type: cell-based; conditions: Candida albicans ATCC2091, mean of triplicate; read-out: MIC (IC80) ATCC2091
# Description: as §1
# [2] = test system: CA98002 (Candida albicans); test: Anti-Candida in vitro assay, CA98002; assay type: cell-based; conditions: Candida albicans CA98002, mean of triplicate; read-out: MIC (IC80) CA98002
# Description: as §1
# [3] = test system: CA98005 (Candida albicans); test: Anti-Candida in vitro assay, CA98005; assay type: cell-based; conditions: Candida albicans CA98005, mean of triplicate; read-out: MIC (IC80) CA98005
# Description: as §1
# [4] = test system: ATCC6258 Candida krusei strain; test: Anti-Candida in vitro assay, ATCC6258; assay type: cell-based; conditions: Pichia kudriavzevii; Candida krusei ATCC6258, mean of triplicate; read-out: MIC (IC80) ATCC6258
# Description: as §1
# CK98002 (Candida krusei) = test: Anti-Candida in vitro assay, CK98002; assay type: cell-based; conditions: Pichia kudriavzevii; Candida krusei CK98002, mean of triplicate; read-out: MIC (IC80) CK98002
# Description: as §1
# CK98003 (Candida krusei) = test: Anti-Candida in vitro assay, CK98003; assay type: cell-based; conditions: Pichia kudriavzevii; Candida krusei CK98003, mean of triplicate; read-out: MIC (IC80) CK98003
# Description: as §1
# [5] = test system: CL98001 (Candida lusitaniae); test: Anti-Candida in vitro assay, CL98001; assay type: cell-based; conditions: Clavispora lusitaniae; Candida lusitaniae CL98001, mean of triplicate; read-out: MIC (IC80) CL98001
# Description: as §1
# [6] = test system: ATCC90018 Candida parapsilosis strain; test: Anti-Candida in vitro assay, ATCC90018; assay type: cell-based; conditions: Lodderomyces parapsilosis; Candida parapsilosis ATCC90018, mean of triplicate; read-out: MIC (IC80) ATCC90018
# Description: as §1
# MRC5 toxicity assay = assay type: cell-based, human; conditions: human, MRC-5 human fetal lung fibroblast cells, MRC-5 cells, 96-h incubation, mean of triplicate; read-out: Cytotoxicity IC50 on MRC-5 cells
# Description: The cytotoxicity of compounds was studied with human fibroblast (MRC5). Cells were grown in RPMI 1640 medium (Sigma-Aldrich, Saint-Quentin Fallavier, France) supplemented with 10% fetal bovin serum (Sigma–Aldrich). Drugs were tested at three concentrations (100, 10, and 1 µM) in triplicate. After a 96-h incubation time, cytotoxicity was measured on the Fluorolite 1000 (Dynatech, Guyancourt, France) after a 4-h incubation time with Uptiblue® (Interchim, Montluçon, France). Inhibitory concentration 50 is a mean of triplicate values. A toxicity index was determined as follow: IC50 against MRC5/Geometric mean of the MICs against Candida spp..
# [7] = MIC = IC80, 24 h at 37 °C, mean of triplicate
Structure (SMILES),MIC (C. albicans CA98001; [7]),MIC [1],MIC [2],MIC [3],MIC [4],MIC (CK98002 (Candida krusei)),MIC (CK98003 (Candida krusei)),MIC [5],MIC [6],IC50 at 96 h (MRC5 toxicity assay),melting point,Times more active than FLC against C. albicans CA98001 (C. albicans CA98001; ratio of MIC values versus FLC),MIC (= IC80) C. albicans CA98001 (C. albicans CA98001; [7])
"Cc1cc2ccccc2n1CC(O)(Cn1cncn1)c1ccc(F)cc1F (stereo not shown) [Compound 11f, 2-(2,4-Difluorophenyl)-3-(2-methyl-1H-indol-1-yl)-1-(1H-1,2,4-triazol-1-yl)propan-2-ol]",0.022 µg/mL,0.199 µg/mL,0.302 µg/mL,0.516 µg/mL,17.6 µg/mL,7.59 µg/mL,5.45 µg/mL,0.232 µg/mL,2.5 µg/mL,~190 µM,125 to 126 °C,,
"OC(Cn1ccnc1)(Cn1ccc2ccccc21)c1ccc(F)cc1F (stereo not shown) [Compound 8d, 2-(2,4-Difluorophenyl)-1-(1H-imidazol-1-yl)-3-(1H-indol-1-yl)propan-2-ol]",0.00035 µg/mL,0.726 µg/mL,0.609 µg/mL,0.439 µg/mL,3.86 µg/mL,5.69 µg/mL,5.21 µg/mL,0.068 µg/mL,0.614 µg/mL,34 µM,166 to 168 °C,57,
"Cc1cn(CC(O)(Cn2cncn2)c2ccc(F)cc2F)c2ccccc12 (stereo not shown) [Compound 11h, 2-(2,4-Difluorophenyl)-3-(3-methyl-1H-indol-1-yl)-1-(1H-1,2,4-triazol-1-yl)propan-2-ol]",,0.136 µg/mL,0.033 µg/mL,0.265 µg/mL,1.4 µg/mL,0.81 µg/mL,0.7 µg/mL,0.023 µg/mL,0.309 µg/mL,105 µM,112 to 113 °C,,
"Cc1c(C)n(CC(O)(Cn2cncn2)c2ccc(F)cc2F)c2ccccc12 (stereo not shown) [Compound 11j, 2-(2,4-Difluorophenyl)-3-(2,3-dimethyl-1H-indol-1-yl)-1-(1H-1,2,4-triazol-1-yl)propan-2-ol]",0.157 µg/mL,0.256 µg/mL,0.382 µg/mL,2.41 µg/mL,18 µg/mL,11.5 µg/mL,13.9 µg/mL,0.256 µg/mL,4.01 µg/mL,25 µM,102 to 103 °C,,
"OC(Cn1cncn1)(Cn1ccc2ccccc21)c1ccc(Br)cc1 (stereo not shown) [Compound 11c, 2-(4-Bromophenyl)-3-(1H-indol-1-yl)-1-(1H-1,2,4-triazol-1-yl)propan-2-ol]",0.027 µg/mL,0.477 µg/mL,0.338 µg/mL,0.286 µg/mL,1.51 µg/mL,2.46 µg/mL,2.5 µg/mL,0.215 µg/mL,2.03 µg/mL,38 µM,186 to 187 °C,,
"OC(Cn1ccnn1)(Cn1ccc2ccccc21)c1ccc(Cl)cc1Cl (stereo not shown) [Compound 11l, 2-(2,4-Dichlorophenyl)-3-(1H-indol-1-yl)-1-(1H-1,2,3-triazol-1-yl)propan-2-ol]",> 100 µg/mL,,,,,,,,,,210 to 211 °C,,
"OC(Cn1nccn1)(Cn1ccc2ccccc21)c1ccc(Cl)cc1Cl (stereo not shown) [Compound 11m, 2-(2,4-Dichlorophenyl)-3-(1H-indol-1-yl)-1-(2H-1,2,3-triazol-2-yl)propan-2-ol]",> 100 µg/mL,,,,,,,,,,159 to 161 °C,,
"OC(Cn1cncn1)(Cn1ccc2ccccc21)c1ccc(Cl)cc1 (stereo not shown) [Compound 11b, 2-(4-Chlorophenyl)-3-(1H-indol-1-yl)-1-(1H-1,2,4-triazol-1-yl)propan-2-ol]",0.024 µg/mL,0.258 µg/mL,0.261 µg/mL,0.222 µg/mL,2.43 µg/mL,12.7 µg/mL,2.43 µg/mL,0.208 µg/mL,2.05 µg/mL,> 100 µM,188 to 189 °C,,
"OC(Cn1cncn1)(Cn1ccc2ccccc21)c1ccc(F)cc1 (stereo not shown) [Compound 11a, 2-(4-Fluorophenyl)-3-(1H-indol-1-yl)-1-(1H-1,2,4-triazol-1-yl)propan-2-ol]",0.21 µg/mL,0.437 µg/mL,0.404 µg/mL,0.437 µg/mL,19.2 µg/mL,21.4 µg/mL,18.7 µg/mL,0.259 µg/mL,2.52 µg/mL,> 100 µM,190 to 191 °C,,0.21 µg/mL
"Cc1cc2ccccc2n1CC(O)(Cn1cncn1)c1ccc(Cl)cc1Cl (stereo not shown) [Compound 11g, 2-(2,4-Dichlorophenyl)-3-(2-methyl-1H-indol-1-yl)-1-(1H-1,2,4-triazol-1-yl)propan-2-ol]",0.0058 µg/mL,0.526 µg/mL,0.321 µg/mL,0.269 µg/mL,> 40 µg/mL,> 40 µg/mL,> 40 µg/mL,0.181 µg/mL,> 40 µg/mL,157 µM,170 to 171 °C,,
"OC(Cn1ccnc1)(Cn1ccc2ccccc21)c1ccc(F)cc1 (stereo not shown) [Compound 8a, 2-(4-Fluorophenyl)-1-(1H-imidazol-1-yl)-3-(1H-indol-1-yl)propan-2-ol]",0.03 µg/mL,0.131 µg/mL,0.205 µg/mL,0.148 µg/mL,> 33.5 µg/mL,12.8 µg/mL,28.6 µg/mL,0.231 µg/mL,2.11 µg/mL,50 µM,166 to 167 °C,,
"OC(Cn1ccnc1)(Cn1ccc2ccccc21)c1ccc(Cl)cc1Cl (stereo not shown) [Compound 8e, 2-(2,4-Dichlorophenyl)-1-(1H-imidazol-1-yl)-3-(1H-indol-1-yl)propan-2-ol]",0.062 µg/mL,0.19 µg/mL,0.251 µg/mL,0.274 µg/mL,1.2 µg/mL,1.8 µg/mL,0.28 µg/mL,0.116 µg/mL,0.24 µg/mL,31 µM,212 to 213 °C,,
